≈ marks a conversion by molar mass, not a printed value.
Legend:
Trypanosoma cruzi [1] = test: Trypanocidal activity against epimastigote forms of Trypanosoma cruzi Punta Lobos after 24 hrs; assay type: functional
Trypanosoma cruzi [2] = test: Trypanocidal activity against epimastigote forms of Trypanosoma cruzi Queretaro after 24 hrs; assay type: functional
[3] = Induction of apoptosis in human monocytes assessed as viable cells using Annexin V/propidium iodide by flow cytometry (reference value: 97.53 %); assay type: cell-based, Monocyte; details: read-out: Activity
[4] = Induction of apoptosis in human monocytes assessed as early apoptotic cells using Annexin V/propidium iodide by flow cytometry (reference value: 2.18 %); assay type: cell-based; details: monocyte
[5] = Induction of apoptosis in human monocytes assessed as late apoptotic cells using Annexin V/propidium iodide by flow cytometry (reference value: 0.27 %); assay type: cell-based; details: monocyte
[6] = Induction of apoptosis in human monocytes assessed as necrotic cells using Annexin V/propidium iodide by flow cytometry (reference value: 0.02 %); assay type: cell-based; details: monocyte
[7] = Induction of apoptosis in human platelets assessed as viable cells after 10 mins using Annexin V/propidium iodide by flow cytometry (reference value: 89.61 %); assay type: cell-based, Platelet; details: read-out: Activity
[8] = Induction of apoptosis in human platelets assessed as early apoptotic cells after 10 mins using Annexin V/propidium iodide by flow cytometry (reference value: 10.30 %); assay type: cell-based; details: platelet
[9] = Induction of apoptosis in human platelets assessed as late apoptotic cells after 10 mins using Annexin V/propidium iodide by flow cytometry (reference value: 0.02 %); assay type: cell-based; details: platelet
[10] = Induction of apoptosis in human platelets assessed as necrotic cells after 10 mins using Annexin V/propidium iodide by flow cytometry (reference value: 0.07 %); assay type: cell-based; details: platelet
[11] = Activation of human platelets assessed as CD62P expression at 3.9 ug/ml by flow cytometry relative to control; assay type: cell-based; details: platelet

| Compound | LC50 (Trypanosoma cruzi [1]) [mg/L] | LC50 (Trypanosoma cruzi [2]) [mg/L] | viability [3] [%] | Activity [4] [%] | Activity [5] [%] | Activity [6] [%] | viability at 10 min [7] [%] | Activity [8] [%] | Activity [9] [%] | Activity [10] [%] | Activity [11] [%] |
| --- | --- | --- | --- | --- | --- | --- | --- | --- | --- | --- | --- |
| NC(=S)N/N=C/c1ccc(Sc2ccc(C(F)(F)F)cc2)o1 | 8.3 (≈ 24 µM) | 29.5 (≈ 85.4 µM) | 72.9 | 21.44 | 4.48 | 1.18 | 79.4 | 20.39 | 0.08 | 0.16 | 18.56 |
| NC(=S)N/N=C/c1ccc(Sc2c(F)c(F)c(C(F)(F)F)c(F)c2F)o1 | 5.1 (≈ 12.2 µM) | 4.6 (≈ 11 µM) | 72.7 | 21.91 | 4.76 | 0.62 | 87.4 | 12.55 | 0.03 | 0.04 | 23.35 |
| NC(=S)N/N=C/c1ccc(Sc2cccc(C(F)(F)F)c2)o1 | 17.8 (≈ 51.5 µM) | 7.8 (≈ 22.6 µM) | 66.7 | 22.9 | 7.87 | 2.57 | 90.9 | 8.87 | 0.05 | 0.17 | 19.06 |
| NC(=S)N/N=C/c1ccc(Sc2ccc(C(F)(F)F)cc2[N+](=O)[O-])o1 | 3.2 (≈ 8.2 µM) | 3.4 (≈ 8.71 µM) | 79.4 | 17.05 | 2.81 | 0.7 | 87.2 | 12.48 | 0.24 | 0.09 | 23.63 |
| NC(=S)N/N=C/c1ccc(Sc2ccccc2C(F)(F)F)o1 | 11.4 (≈ 33 µM) | 14 (≈ 40.5 µM) | 70.7 | 26.47 | 2.63 | 0.24 | 82.6 | 17.31 | 0.06 | 0.05 | 22.14 |
| CN(C)c1ccc(C(=C2C=CC(=[N+](C)C)C=C2)c2ccc(N(C)C)cc2)cc1.[Cl-] [GENTIAN VIOLET] | 15.8 | 6.2 |  |  |  |  |  |  |  |  |  |
| O=C(Cn1ccnc1[N+](=O)[O-])NCc1ccccc1 [BENZNIDAZOLE] | 4 (≈ 15.4 µM) | 6.5 (≈ 25 µM) | 75.9 | 18.79 | 4.78 | 0.51 | 76.9 | 22.95 | 0.02 | 0.12 | 42.51 |
